Experiments:
MOLT-3 (T-lineage ALL) = assay: MTT cytotoxicity assay, MOLT-3; format: cell-based; conditions: Homo sapiens, MOLT-3 cells, 24-36 hours incubation
Procedure: (§1) The cytotoxicity of compound II was evaluated against two acute lymphoblastic leukemia (ALL) cell lines, NALM-6 (B-lineage ALL), and MOLT-3 (T-lineage ALL) using MTT (3-[4,5-dimethylthiazol-2-yl]-2,5-diphenyl tetrazolium bromide) assay (Boehringer Mannheim Corp., Indianapolis, Ind. The human leukemic cell lines (NALM-6, and MOLT-3) were obtained from the American Type Culture Collection and maintained as a continuous cell line in Dulbecco's modified Eagles's medium supplemented with 10% fetal bovine serum and antibiotics. Briefly, exponentially growing cells were seeded into a 96-well plate at a density of 2.5×10^4 cells/well and incubated for 36 hours at 37° C. prior to exposure to the compound. On the day of treatment, culture medium was carefully aspirated from the wells and replaced with fresh medium containing compound II at concentrations ranging from 0.1 to 250 μM. Triplicate wells were used for each treatment.
(§2) The cells were incubated with compound II for 24-36 hours at 37° C. in a humidified 5% CO2 atmosphere. […] The absorbance of each well was measured in a microplate reader (Labsystems) at 540 nm and a reference wavelength of 690 nm. […] The percent survival was calculated using the formula: [formula]
(§3) The IC50 values for cytotoxic activity were determined using Graph-pad Prism software, version 2.0 (San Diego, Calif., USA) and are shown below in Table 1.

NALM-6 (B-lineage ALL) = assay: MTT cytotoxicity assay, NALM-6; format: cell-based; conditions: Homo sapiens, NALM-6 cells, 24-36 hours incubation
Procedure: as §1, §2, §3

O=[As](O)(O)c1ccc(N=Nc2ccc(Nc3nc(C(Cl)(Cl)Cl)nc4ccccc34)cc2)cc1 [Compound II, 2-Trichloromethyl-4-4-[4′-(4″-phenylazo)phenylarsonic Acid]-aminoquinazoline]
IC50 (MOLT-3 (T-lineage ALL)): 2 ± 0.8 µM
melting point: > 300 °C
IC50 (NALM-6 (B-lineage ALL)): 1.1 ± 0.5 µM

— patent US6686344B1, “Organic-arsonic compounds” (Paker Hughes Institute, priority 2003, dated 2004)
